Experiments:
[1] = system: High Fat+Streptozotocin Induced Mouse Model; assay: High fat+streptozotocin induced mouse steatohepatitis model; format: in vivo, mice; conditions: for Inhibition Rate (%) on Ballooning Degeneration of Liver Cells: H&E staining score of liver vs model group; for Inhibition Rate (%) on Ballooning Degeneration of Liver Cells / Inhibition Rate (%) on Collagen Accumulation in Liver Tissue / Body Weight / Liver Weight / Liver Weight/Body Weight / Inhibition Rate (%) on Fatty Degeneration: oral once a day for 21 days, compound C 100 mg/kg, telmisartan 50 mg/kg; for Inhibition Rate (%) on Collagen Accumulation in Liver Tissue: Picrosirius red staining score of liver vs model group; for Body Weight / Liver Weight / Liver Weight/Body Weight: at the end of the test; for Body Weight: after fasting; for Inhibition Rate (%) on Fatty Degeneration: oil red O staining score of liver vs model group
Experimental: Pregnant mice were purchased from Shanghai Lingchang Laboratory Animal Co., Ltd. Thirty 2-day-old newborn male mice were chosen for the test. Each mouse was injected with 200 μg of streptozotocin (STZ, purchased from Sigma) and fed a high-fat diet for 2 weeks from 4-week-old to induce a steatohepatitis model. Meanwhile, another ten mice were selected as a normal group where they were fed a normal diet without injection of STZ. After 2 weeks of high-fat diet feeding, the mice were divided into 3 groups according to their body weights and fasting blood glucose levels: a model group, a compound C administration group, and a telmisartan (purchased from TOKYO CHEMICAL) administration group. Each group underwent once-a-day oral administration of the corresponding substance for 21 consecutive days. The body weights of mice were recorded each day (see FIG. 1A and FIG. 1B), and after the final administration, the body weights of mice after fasting were recorded (see Table 2 and FIG. 2A and FIG. 2B). The animals were euthanized, and their liver tissues were harvested. The liver tissues were weighed and subjected to histologic scoring (blind assessment) in respect of ballooning degeneration, fatty degeneration, and collagen accumulation, etc. Histologic changes were assessed by hematoxylin and eosin (H&E) staining, oil red O staining and Picrosirius red staining of the liver tissues, where the H&E staining was used for assessing the ballooning degeneration of liver cells, the oil red O staining was used for reflecting the fatty degeneration of liver and the Picrosirius red staining was used for assessing collagen accumulation. Relevant scores are shown in FIG. 3A, FIG. 3B and FIG. 3C, and inhibition rates of various histologic changes are shown in Table 3.
Scoring criteria: fatty degeneration is scored on a scale from 0 to 3, where lesion area <5% is scored as 0, lesion area of 5-33% is scored as 1, lesion area of 33-66% is scored as 2 and lesion area >66% is scored as 3. Ballooning degeneration of liver cells is scored on a scale from 0 to 2, where no ballooning degeneration is scored as 0, little ballooning degeneration is a scored as 1, and ballooning degeneration of most cells or significant ballooning degeneration is scored as 2. Collagen accumulation is scored on a scale from 0 to 4 with reference to the scoring criteria reported in Brunt E M, et al., Hepatology (2011).
The inhibition rates (%) on fatty degeneration, ballooning degeneration of liver cells and collagen accumulation in liver tissue shown in Table 3 were calculated according to the following formulae, respectively (the normal group was scored as 0): Inhibition rate (%) on fatty degeneration=100%×(the average score of the model group−the average score of the administration group)/(the average score of the model group−the average score of the normal group) Inhibition rate (%) on ballooning degeneration of liver cells=100%×(the average score of the model group−the average score of the administration group)/(the average score of the model group−the average score of the normal group) Inhibition rate (%) on collagen accumulation in liver tissue=100%×(the average score of the model group−the average score of the administration group)/(the average score of the model group−the average score of the normal group)

[2] = system: High Fat+High Cholesterol+Carbon Tetrachloride Induced Mouse Model; assay: High fat+high cholesterol+carbon tetrachloride induced mouse steatohepatitis model; format: in vivo, mice; conditions: oral once a day, three 21-day courses, compound C 100 mg/kg, telmisartan 10 mg/kg; for Collagen accumulation in liver tissue: Picrosirius red staining, vs model group (compound C p<0.01; telmisartan p>0.05); for Serum cholesterol level / Serum low density lipoprotein level: vs model group (compound C p<0.01)
Text: Mice which were 8-10 weeks old (purchased from Jiangsu GemPharmatech Co., Ltd.) were fed a western diet (a high fat+high cholesterol feed, purchased from Beijing Hfk Bioscience Co., Ltd.) and injected intraperitoneally with carbon tetrachloride to induce a steatohepatitis model. Experimental animals were randomly divided into 3 groups (8 animals in each group) according to their body weights: a model group (administrated with a vehicle composed of PEG400, Tween-80 and deionized water), a compound C (100 mg/kg) administration group, and a telmisartan (10 mg/kg) administration group. Starting from day 5 (D5) of western diet feeding, each group underwent an intraperitoneal injection of 0.05 ml of 20% CCl4 once a week, for 12 weeks. Starting from day 21, the vehicle, compound C and telmisartan were each administered orally once a day, for three 21-day treatment courses at one-week intervals. Meanwhile, a normal control group was set wherein the mice were fed a normal diet combined with normal drinking water. Peripheral blood was taken from animals 2 h after the final administration, and serum was isolated. The animals were euthanized and their liver tissues were harvested. The serum was mainly used to measure the levels of cholesterol and low density lipoprotein. The liver tissues were stained with Picrosirius red to assess collagen accumulation.

[3] = system: High Fat+High Cholesterol Diet and N-Diethylnitrosamine Induced Rat Model; assay: High fat+high cholesterol diet and N-diethylnitrosamine induced rat model, NAS scoring; format: in vivo, SD rats; conditions: compound C administration groups (50 mg/kg and 100 mg/kg), intragastric once a day for 49 days; H&E staining; model group score 6
Experimental: Pregnant SD rats were purchased from Shanghai Jihui Laboratory Animal Care Co., Ltd, and neonatal rats obtained therefrom were used in this study. Forty male neonatal rats were chosen to receive a single injection of N-diethylnitrosamine (DEN, purchased from Sigma) at 2 weeks of age. After the neonatal rats were fed rat milk for 2 weeks, they were randomly divided into 4 groups (10 animals in each group) according to their body weights: a model group (0.5% CMC-Na), a compound C (50 mg/kg) administration group, a compound C (100 mg/kg) administration group, and an obeticholic acid (OCA, purchased from WuXi AppTec (Wuhan), 30 mg/kg) administration group. Each neonatal rat was fed a western diet (a high fat+high cholesterol feed, purchased from Trophic Animal Feed High-Tech Co., Ltd, China, Su Si certificate (2014) No. 06092) for 8 weeks. Meanwhile, another 8 male neonatal rats were selected as a normal group, which were fed rat milk for 4 weeks and then fed a normal diet instead of the high fat+high cholesterol diet. Starting from day 8 of high fat+high cholesterol diet feeding, the vehicle (0.5% CMC-Na), compound C and OCA were each administrated intragastrically once a day, for 49 consecutive days.
Animals were euthanized 2 h after the final administration, and their liver tissues were harvested. […]

[4] = system: Carbon Tetrachloride Induced Mouse Model; assay: Carbon tetrachloride induced mouse model; format: in vivo, mice; conditions: Picrosirius red staining
Experimental: Mice which were 8-10 weeks old (purchased from Jiangsu GemPharmatech Co., Ltd.) were randomly divided into 4 groups (8 animals in each group) according to their body weights: a model group (administrated with a vehicle, 0.5% CMC-Na), a compound C (300 mg/kg) administration group, a compound C (100 mg/kg) administration group, and a telmisartan (10 mg/kg) administration group. Each mouse was injected intraperitoneally with 0.05 ml of 40% CCl4 twice a week, for 6 consecutive weeks. Starting from day 15, each group underwent an intragastric administration of the corresponding substance once a day, for 28 consecutive days. Meanwhile, a normal control group was set wherein the mice in this group were fed a normal diet combined with normal drinking water. Animals were euthanized 2 h after the final administration, and their liver tissues were harvested and stained with Picrosirius red to assess collagen accumulation.

[5] = system: High Fat+High Cholesterol+High Sugar+Carbon Tetrachloride Induced Mouse Model; assay: High fat+high cholesterol+high sugar+carbon tetrachloride induced mouse steatohepatitis model; format: in vivo, mice; conditions: three 21-day courses; for Collagen accumulation in liver tissue: Picrosirius red staining; for Collagen accumulation in liver tissue / Serum cholesterol level / Serum low density lipoprotein level: oral once a day, compound C 100 mg/kg, telmisartan 10 mg/kg; for Serum cholesterol level / Serum low density lipoprotein level: vs model group (compound C p<0.05)
Experimental: Mice which were 8-10 weeks old (purchased from Jiangsu GemPharmatech Co., Ltd.) were fed a western diet (a high fat+high cholesterol feed, purchased from Beijing Hfk Bioscience Co., Ltd.) and a high-sugar solution (23.1 g/L D-fructose and 18.9 g/L D-glucose) and injected intraperitoneally with carbon tetrachloride to induce a steatohepatitis model. Starting from day 7 (D7) of western diet+high-sugar solution feeding, the mice were injected intraperitoneally with 0.05 ml of 20% carbon tetrachloride once a week, for 12 weeks. Animals were divided into groups (8 animals in each group) on day 28: a model group (administrated with a vehicle composed of PEG400, Tween-80 and deionized water), a compound C (100 mg/kg) administration group, and a telmisartan (10 mg/kg) administration group. Starting from day 28, the vehicle, compound C and telmisartan were each administered orally once a day, for three 21-day treatment courses at one-week intervals. Meanwhile, a normal control group was set wherein the mice were fed a normal diet combined with normal drinking water. Peripheral blood was taken from animals 2 h after the final administration, and serum was isolated. The animals were euthanized, and their liver tissues were harvested. The serum was mainly used to measure the levels of cholesterol and low density lipoprotein. The liver tissues were stained with Picrosirius red to assess collagen accumulation, and the ratio of endothelial cells to macrophages was measured by flow cytometry to reflect liver damage.

SMILES	Therapeutic effect (fatty degeneration, ballooning degeneration, collagen accumulation of liver tissue) ([1]; 100 mg/kg oral once a day for 21 days)	Inhibition Rate (%) on Ballooning Degeneration of Liver Cells [1] [%]	Inhibition Rate (%) on Collagen Accumulation in Liver Tissue [1] [%]	Body Weight [1] [g]	Liver Weight [1] [mg]	Liver Weight/Body Weight [1] [%]	Inhibition Rate (%) on Fatty Degeneration [1] [%]	Collagen accumulation in liver tissue [2]	Serum cholesterol level [2]	Serum low density lipoprotein level [2]	NAS score of liver tissue [3]	Collagen accumulation in liver tissue ([4]; 100 mg/kg intragastric once a day for 28 days, vs model group (p<0.001))	Collagen accumulation in liver tissue ([4]; 300 mg/kg intragastric once a day for 28 days, vs model group (p<0.001))	Collagen accumulation in liver tissue ([5]; vs model group (p<0.01))	Proportion of endothelial cells in liver tissue ([5]; flow cytometry, vs model group (p<0.01), compound C 100 mg/kg oral once a day)	Proportion of macrophages in liver tissue ([5]; flow cytometry, vs model group, compound C 100 mg/kg oral once a day)	Serum cholesterol level [5]	Serum low density lipoprotein level [5]	Collagen accumulation in liver tissue ([4]; 10 mg/kg intragastric once a day for 28 days, vs model group (p>0.05))
Cn1c(C(=O)N2CC(F)(F)C2)cc2ccc(-c3nccc(Nc4ccc(-c5cn[nH]c5)cc4)n3)cc21 [Compound C]	significant therapeutic effects	60.00	44.44	17.1 ± 0.59	872.3 ± 17.91	5.1 ± 0.15	66.67	significantly reduced	significantly reduced	significantly reduced	about 4.2	significantly reduced	significantly reduced	significantly reduced	increased	reduced at a certain extent	significantly reduced	significantly reduced	
CCCc1nc2c(C)cc(-c3nc4ccccc4n3C)cc2n1Cc1ccc(-c2ccccc2C(=O)O)cc1 [Telmisartan, telmisartan, reference compound]		11.12	38.27	15.7 ± 0.84	760.1 ± 48.78	4.9 ± 0.39	−11.17	not inhibited	no effect	no effect				significantly reduced			no effect	no effect	not inhibited

From patent US12485108B2, “Method for treating fatty liver disease and/or steatohepatitis” (BEIJING TIDE PHARMACEUTICAL CO., LTD., priority 2019, dated 2025)
